In article PMC4965013, “Open Source Drug Discovery with the Malaria Box Compound Collection for Neglected Diseases and Beyond” (PLoS Pathogens, 2016):
Several values for one entry are separate records, joined by “and”; a condition that tells them apart may be missing. Equal entries are not always repeated.

Assays:
[1] = test system: CYP2D8 mRNA; assay: MPCC LMA-Luminex CYP2D8 mRNA; format: cell-based, human; conditions: 10µM
[2] = test system: CYP2D6 mRNA; assay: MPCC LMA-Luminex CYP2D6 mRNA; format: cell-based, human; conditions: 10µM
[3] = test system: CYP2C19 mRNA; assay: MPCC LMA-Luminex CYP2C19 mRNA; format: cell-based, human; conditions: 10µM
[4] = test system: CYP1A2 mRNA; assay: MPCC LMA-Luminex CYP1A2 mRNA; format: cell-based, human; conditions: 10µM
[5] = test system: CYP3A4 mRNA; assay: MPCC LMA-Luminex CYP3A4 mRNA; format: cell-based, human; conditions: 10µM
[6] = test system: MAOB mRNA; assay: MPCC LMA-Luminex MAOB mRNA; format: cell-based, human; conditions: 10µM
[7] = Kinetic Solubility at pH 7.4 (LC/CLND); format: physicochemical; conditions: pH 7.4, aqueous buffer, kinetic from dmso stock; read-out: Kinetic Solubility >20µM at pH 7.4
Procedure: Columns GD-GJ: Wuxi Inc. data for MMV (data presented first in this paper) PK/DMPK Parameters: Fasted animals (Male CD-1 mouse, 7-9 weeks age, 30±10 g, n=3) obtained from an approved vendor (SLAC Laboratory Animal Co. Ltd., Shanghai, China or Sino-British SIPPR/BK Laboratory Animal Co. Ltd Shanghai, China) were administered with a single oral dose (140 μmol/kg) using DMSO: 1% HPMC (5:95) as a vehicle. Blood sampling was performed via the submandibular or saphenous vein (t=0.083, 0.25, 1, 2, 4, 6 and 9 h) and transferred into microcentrifuge tubes containing Sodium Heparin (1,000 IU/ml) as anti-coagulant placed on wet ice until processed for plasma by centrifugation at approximately 4°C, 3000×g for 15 min. Plasma samples were stored in polypropylene tubes, quick frozen over dry ice and kept at -70±10°C until LC/MS/MS analysis. LC/MS/MS methods for the quantitative determination compounds plasma levels were developed with an internal standard. […] (Phoenix WinNonlin, version 6.2.1, Pharsight, Mountain View, CA) and expressed as Cmax & AUC0-last. […] AUC0-last is the area under the curve expressed as >12 h*μM (Yes or No). Plasma protein binding assay (PPB) (CD-1 mouse and human) expressed as <95% bound, >95% bound, or >99% bound. Kinetic Solubility at pH 7.4 was determined by liquid chromatography/chemiluminescence nitrogen detection (LC/CLND) and was scored as greater than 20µM (Yes or No). hERG inhibition was measured at 11µM by the QPatch- HT system and is expressed as “Yes” if greater than 45% inhibited at 11µM and “No” if less than or equal to 45% inhibited at 11µM. As part of the Drug-Drug Interaction studies (DDI issues), 5 human and 1 mouse CYP isoforms (1A2, 2C9, 2C19, 2D6, 3A4-M, 3A4-T) were tested for inhibition assay at 10 µM. […] Otherwise DDI issues were scored as “No”. Positive and negative controls were run for each assay (Table 1).

[8] = test system: CYP2C9 mRNA; assay: MPCC LMA-Luminex CYP2C9 mRNA; format: cell-based, human; conditions: 10µM
[9] = test system: MAOA mRNA; assay: MPCC LMA-Luminex MAOA mRNA; format: cell-based, human; conditions: 10µM
[10] = test system: P. berghei liver stages in HepG2; assay: P. berghei liver stage luciferase Hanson; format: cell-based; conditions: Plasmodium berghei, read-out: P. berghei Liver Stage % of control infection (Luciferase)
Procedure: Columns AS-AT: Hanson group (data presented first in this paper). P. berghei liver stage growth. Phenotypic analysis of Malaria Box compound activity against P. berghei liver stages and assay development will be reported elsewhere (Medina Vera, Itoe, et al; in preparation). Methods: Screening was carried out in 96 well plates, with 10,000 HepG2 cells (ATCC) seeded one day prior to infection with 10,000 P. berghei-Luciferase (676m1cl1) sporozoites per well in the presence of 1:300 Fungizone (Life Technologies). Medium was replaced 2 hours post-infection (hpi) and the Malaria Box compounds were added at a final concentration of 5 µM at this time. At 48 hpi, parasite load, by way of luminescence, was quantified after a 10 minute incubation with 50 µl of 150 µg/ml D-Luciferin on a Tecan Infinite M200 plate reader. Plates included 8 wells of DMSO (compound vehicle and positive control for infection), along with 8 non-infected wells serving as negative controls. Luminescence values for individual wells were normalized to the mean of the in-plate DMSO controls, which was set at 100. […] The normalized mean of non-infected control wells was 2.5, with a standard deviation of 2. Data presented are the average of 3 independent experiments, each conducted in technical triplicate. Toxicity of the compounds was determined at 66 hpi based on HepG2 cell abundance in 9 non-overlapping images per well, generated with a Molecular Devices IXM using a 40x objective. Briefly, EEFs were identified based on 2E6 immunolabeling and used to mask widefield images of Hoechst 33452-labeled nuclei, and the percentage of each 2,160 x 2,160 pixel image occupied by Hoechst^+ pixels, representing HepG2 nuclei only, was then determined for all images in CellProfiler. Data is from one representative experiment. The mean area occupied by HepG2 nuclei in the 8 DMSO controls wells was set to 1, and used to normalize those treated with compounds.

[11] = test system: Strongyloides stercoralis; assay: Strongyloides stercoralis Scynexis; format: cell-based; conditions: 10µM
Procedure: Supplement ppat.1005763.s002.xlsx, sheet "S1 Table Heat Map" | column: Strongyloides stercoralis % dead at 10µM Scynexis

[12] = test system: NCI60 human tumor cell lines; assay: NCI60 5-dose (dose-response) assay; format: cell-based
Excerpt: Columns IE-KK. NCI: Misra group (data presented first in this paper). NCI60 anti-tumor cell activity. Methods: […] These 60 cell lines, along with others, have been developed at NCI and have been maintained and distributed for research purposes by NCI for over 25 years. The experimental readout provides both inhibition of cell growth and cell kill. The screen was originally designed to prioritize agents for further evaluation. […] This is the same as for the 5-dose assay, described on http://dtp.cancer.gov/branches/btb/ivclsp.html. […] Testing beyond the initial screen: There were 133 compounds that passed threshold to proceed to 5-dose (dose-response) (data are available for the 133 compounds at the DTP public website (dtp.cancer.gov) by searching either the MMV number or NSC number). After examination of the 5-dose data, 10 compounds were selected for repeat testing based generally on potency, differential cell activity or activity on an individual cell lines or cell line panel. A summary of the data for the 10 compounds of interest is in the table below.

[13] = test system: Toxoplasma gondii TS-4; conditions: ref [84]; read-out: Toxoplasma gondi TS4 EC50; cited from earlier work
[14] = mean over cell lines of one experiment, listed as 766523/2

CCOC(=O)c1cnc2ccc(OC)cc2c1NCc1ccccc1 [MMV665813]
Human hepatocyte CYP2D8 mRNA induction, 0.0 normal [1]: -0.79
Human hepatocyte CYP2D6 mRNA induction, 0.0 normal [2]: -1.27
Human hepatocyte CYP2C19 mRNA induction, 0.0 normal [3]: -0.35
Human hepatocyte CYP1A2 mRNA induction, 0.0 normal [4]: -0.15
Human hepatocyte CYP3A4 mRNA induction, 0.0 normal [5]: -0.06
Human hepatocyte MAOB mRNA induction, 0.0 normal [6]: -1.05
solubility kinetic [7]: < 20 µM
Human hepatocyte CYP2C9 mRNA induction, 0.0 normal [8]: -0.17
Human hepatocyte MAOA mRNA induction, 0.0 normal [9]: -0.36
activity at 5 µM [10]: 66%

CCN(CC)c1cc(C)c2cc(NC(=O)c3cccc(OC)c3)ccc2n1 [MMV000498]
Strongyloides stercoralis % dead [11]: 25%
solubility kinetic [7]: < 20 µM
activity at 5 µM [10]: 63%

CCN1CCN(c2cc(C)c3cc(NC(=O)c4ccc(OC)c(OC)c4)ccc3n2)CC1 [MMV019074]
Notes (NCI60 5-dose activity pattern) [12]: Specific lines sensitive
MGLI50 = Mean Growth Log I50 ([12]; 5-dose, mean over NCI60 panel): -4.91
_MID Log10GI50 [12, 14]: -4.8 Molar and -5.03 Molar
_MID Log10LC50 [12, 14]: -4.0 Molar and -4.04 Molar
_MID Log10TGI [12, 14]: -4.05 Molar and -4.25 Molar
solubility kinetic [7]: < 20 µM
activity at 5 µM [10]: 105%

COc1ccc(C(=O)Nc2ccc3nc(N4CCCCC4)cc(C)c3c2)cc1OC [MMV019758]
EC50 [13]: 25.7 µM
solubility kinetic [7]: < 20 µM
activity at 5 µM [10]: 74%

COc1cc2cc(C(=O)Nc3ccccc3)c(N)nc2cc1OC [MMV006767]
Human hepatocyte CYP2D8 mRNA induction, 0.0 normal [1]: -0.10
Human hepatocyte CYP2D6 mRNA induction, 0.0 normal [2]: -0.21
Human hepatocyte CYP2C19 mRNA induction, 0.0 normal [3]: -0.39
Human hepatocyte CYP1A2 mRNA induction, 0.0 normal [4]: -0.09
Human hepatocyte CYP3A4 mRNA induction, 0.0 normal [5]: 0.0216
Human hepatocyte MAOB mRNA induction, 0.0 normal [6]: -0.22
solubility kinetic [7]: > 20 µM
Human hepatocyte CYP2C9 mRNA induction, 0.0 normal [8]: -0.09
Human hepatocyte MAOA mRNA induction, 0.0 normal [9]: 0.23
activity at 5 µM [10]: 53%
